This is an account of results in US5106407A, “Iodones and methods for antimicrobial use” (priority 1989, dated 1992).

In brackets after ≈: the same amount, converted by molar mass. Some results are limits rather than exact numbers.

Common to all, as to test: minimum inhibitory concentration (MIC), agar dilution
Format in all cases: cell-based

For one experiment, the system named is Klebsiella pneumoniae. As to conditions: Klebsiella pneumoniae, ATCC8308; ATCC 8308; nutrient agar pH 6.8; read-out: MIC. The method, then:
(§1) The minimum inhibitory concentration (MIC) for the compound of Example 19, i.e., (2-nitrophenyl)-iodonium 2,2-dimethyl-4,6-dioxo-1,3-dioxan-5-ylide was determined for 9 bacteria (using nutrient agar) and 5 yeast and fungi (using malt yeast agar). A one percent solution of this test compound (i.e., the compound of Example 19) was prepared in a mixture of acetone-water. Nutrient agar was prepared at pH 6.8 using deionized water according to standard Difco procedures. Malt yeast agar was prepared by adding 3 g Bacto yeast extract and 42 g Bacto Malt agar per liter of deionized water. The agar (nutrient agar when testing with bacteria and malt yeast agar when testing with yeast and fungi) was dispensed in 30 mL aliquots into 25×200 millimeter (mm) test tubes, capped and autoclaved for 15 min at 115° C. The test tubes containing the agar were cooled in a water bath until the temperature of the agar was 48° C. and then an appropriate amount of the one percent solution of the test compound was added (except in the controls where no test compound was added with the acetone-water) to the respective test tubes so that final concentrations of 500, 250, 100, 50, 25, 10, 5, 2.5, 1.0 and 0 parts per million (ppm) of the test compound in the agar were obtained. The agar solutions were each mixed and poured into individual petri plates so that each petri plate contained agar having a known concentration of test compound dispersed therein. After drying for 24 hr, the petri plates were inoculated with bacteria when the petri plates contained nutrient broth agar or with fungi and yeast when the petri plates contained malt yeast agar.
(§2) The inoculation with bacteria was accomplished using the following procedure. Twenty-four hr cultures of each of the bacteria were prepared by incubating the respective bacteria in tubes containing nutrient broth for 24 hr at 30° C. in a shaker. Dilutions of each of the 24 hr cultures were made so that 9 separate suspensions (one for each of the 9 test bacteria) were made, each containing about 10^8 colony forming units (CFU) per mL of suspension of a particular bacteria. Aliquots of 0.3 mL of each of the above suspensions were used to fill individual wells of a Steer's Replicator. For each microbial suspension, 0.3 mL was used to fill 3 wells (i.e., 3 wells of 0.3 mL each) so that for the 9 different bacteria 27 wells were filled. The Steer's Replicator was then used to inoculate the petri plates.
(§3) The petri plates were incubated at 30° C. for 48 hr and then read to determine if the test compound (i.e., the compound of Example 19) which was incorporated into the agar prevented growth of the respective bacteria. The minimum inhibitory concentration (MIC) for each bacteria was defined as the lowest concentration of the test compound which prevented growth of that bacteria.
(§4) In a similar procedure, the MIC (in ppm) of the compound of Example 11 (i.e., (2-nitrophenyl)-iodonium 2,6-dioxocyclohexylide) for various organisms was determined at an acid pH (about 6.8) and at an alkaline pH (about 8.2).

Another experiment relates to Staphylococcus aureus. As to conditions: Staphylococcus aureus, ATCC6538; ATCC 6538; nutrient agar pH 6.8; read-out: MIC. The method, then: as §1, §2, §3, §4
The next experiment has as its system Escherichia coli. As to conditions: Escherichia coli, ATCC11229; ATCC 11229; nutrient agar pH 6.8; read-out: MIC. The method, then:
as §1, §2, §3, §4

In a further experiment the test system is Pseudomonas aeruginosa. As to conditions: Pseudomonas aeruginosa, ATCC10145; ATCC 10145; nutrient agar pH 6.8; read-out: MIC. The method, then:
as §1, §2, §3, §4

Experiment [1] relates to Pseudomonas aeruginosa PRD-10. As to conditions: Pseudomonas aeruginosa, ATCC15442; ATCC 15442; nutrient agar pH 6.8; read-out: MIC. The method, then:
as §1, §2, §3, §4

The test system of another experiment is Proteus vulgaris. To be noted: Proteus vulgaris, ATCC881; ATCC 881; nutrient agar pH 6.8; read-out: MIC. The method, then:
as §1, §2, §3, §4

For a further experiment, the system named is Salmonella choleraesuis. As to conditions: Salmonella enterica, ATCC 10708 / CHOLERAESUIS, nutrient agar pH 6.8, read-out: MIC. The method, then:
as §1, §2, §3, §4

Take `CC1(C)OC(=O)[C-]([I+]c2ccccc2[N+](=O)[O-])C(=O)O1` [Example 19, (2-Nitrophenyl)-iodonium 2,2-dimethyl-4,6-dioxo-1,3-dioxan-5-ylide]: the MIC (as a rule, the lowest concentration that inhibits growth of the organism) in the experiment with Klebsiella pneumoniae is not above 1 µg/mL; with Staphylococcus aureus it was not above 1 µg/mL; with Escherichia coli it was not above 1 µg/mL; in the experiment with Pseudomonas aeruginosa, 10 µg/mL (≈ 25.6 µM); in experiment [1], 10 µg/mL (≈ 25.6 µM); in the experiment on Proteus vulgaris, not above 1 µg/mL. In the experiment on Salmonella choleraesuis, the minimal inhibitory concentration (MIC) is not above 1 µg/mL.
